Measured values reported in the NIST ThermoML archive (doi:10.1016/j.jct.2012.03.031).
± gives the expanded uncertainty stated by the source.

Assay: molar heat capacity at constant pressure
Details: 101.33 kPa

CCCCc1ccc(C(=O)Oc2ccc(C#N)c(F)c2)cc1 [4-cyano-3-fluorophenyl 4-butylbenzoate]
Details | molar heat capacity at constant pressure [J/K/mol]
141.25 K, Crystal 1, Small (less than 1 g) adiabatic calorimetry | 201.94 ± 1.4
142.25 K, Crystal 1, Small (less than 1 g) adiabatic calorimetry | 202.81 ± 1.4
142.97 K, Crystal 2, Small (less than 1 g) adiabatic calorimetry | 216.4 ± 1.5
143.16 K, Crystal 1, Small (less than 1 g) adiabatic calorimetry | 203.97 ± 1.4
144.71 K, Crystal 1, Small (less than 1 g) adiabatic calorimetry | 205.52 ± 1.5
145.06 K, Crystal 1, Small (less than 1 g) adiabatic calorimetry | 206.05 ± 1.4
145.3 K, Crystal 2, Small (less than 1 g) adiabatic calorimetry | 219.62 ± 1.5
146.94 K, Crystal 1, Small (less than 1 g) adiabatic calorimetry | 208.17 ± 1.5
147.18 K, Crystal 1, Small (less than 1 g) adiabatic calorimetry | 208.18 ± 1.5
147.65 K, Crystal 2, Small (less than 1 g) adiabatic calorimetry | 221.78 ± 1.6
148.81 K, Crystal 1, Small (less than 1 g) adiabatic calorimetry | 210.18 ± 1.5
149.66 K, Crystal 1, Small (less than 1 g) adiabatic calorimetry | 210.87 ± 1.5
150 K, Crystal 1, Vacuum adiabatic calorimetry | 211.22 ± 1.3
150 K, Crystal 2, Small (less than 1 g) adiabatic calorimetry | 226.25 ± 1.6
150 K, Crystal 2, Vacuum adiabatic calorimetry | 226.24 ± 1.4
150.66 K, Crystal 1, Small (less than 1 g) adiabatic calorimetry | 212.24 ± 1.5
152.15 K, Crystal 1, Small (less than 1 g) adiabatic calorimetry | 213.41 ± 1.6
152.37 K, Crystal 2, Small (less than 1 g) adiabatic calorimetry | 229.33 ± 1.6
152.5 K, Crystal 1, Small (less than 1 g) adiabatic calorimetry | 214.29 ± 1.5
154.33 K, Crystal 1, Small (less than 1 g) adiabatic calorimetry | 216.32 ± 1.5
154.65 K, Crystal 1, Small (less than 1 g) adiabatic calorimetry | 216.65 ± 1.5
154.75 K, Crystal 2, Small (less than 1 g) adiabatic calorimetry | 232.46 ± 1.6
156.14 K, Crystal 1, Small (less than 1 g) adiabatic calorimetry | 218.31 ± 1.5
157.14 K, Crystal 2, Small (less than 1 g) adiabatic calorimetry | 235.73 ± 1.6
157.17 K, Crystal 1, Small (less than 1 g) adiabatic calorimetry | 219.23 ± 1.5
157.94 K, Crystal 1, Small (less than 1 g) adiabatic calorimetry | 220.33 ± 1.5
159.54 K, Crystal 2, Small (less than 1 g) adiabatic calorimetry | 238.88 ± 1.7
159.69 K, Crystal 1, Small (less than 1 g) adiabatic calorimetry | 222.08 ± 1.6
159.74 K, Crystal 1, Small (less than 1 g) adiabatic calorimetry | 222.37 ± 1.6
160 K, Crystal 1, Vacuum adiabatic calorimetry | 222.43 ± 1.4
160 K, Crystal 2, Vacuum adiabatic calorimetry | 239.47 ± 1.5
161.51 K, Crystal 1, Small (less than 1 g) adiabatic calorimetry | 224.35 ± 1.6
161.96 K, Crystal 2, Small (less than 1 g) adiabatic calorimetry | 242.01 ± 1.7
162.23 K, Crystal 1, Small (less than 1 g) adiabatic calorimetry | 224.93 ± 1.6
163.28 K, Crystal 1, Small (less than 1 g) adiabatic calorimetry | 226.23 ± 1.6
164.39 K, Crystal 2, Small (less than 1 g) adiabatic calorimetry | 245.1 ± 1.7
164.77 K, Crystal 1, Small (less than 1 g) adiabatic calorimetry | 227.75 ± 1.6
164.86 K, Crystal 1, Small (less than 1 g) adiabatic calorimetry | 227.97 ± 1.6
166.27 K, Crystal 1, Small (less than 1 g) adiabatic calorimetry | 229.58 ± 1.6
166.83 K, Crystal 2, Small (less than 1 g) adiabatic calorimetry | 248.12 ± 1.7
167.33 K, Crystal 1, Small (less than 1 g) adiabatic calorimetry | 230.64 ± 1.6
167.66 K, Crystal 1, Small (less than 1 g) adiabatic calorimetry | 231.21 ± 1.6
169.05 K, Crystal 1, Small (less than 1 g) adiabatic calorimetry | 232.8 ± 1.6
169.28 K, Crystal 2, Small (less than 1 g) adiabatic calorimetry | 251.2 ± 1.8
169.91 K, Crystal 1, Small (less than 1 g) adiabatic calorimetry | 233.56 ± 1.6
170 K, Crystal 1, Vacuum adiabatic calorimetry | 233.66 ± 1.4
170 K, Crystal 2, Vacuum adiabatic calorimetry | 252.09 ± 1.6
170.44 K, Crystal 1, Small (less than 1 g) adiabatic calorimetry | 234.45 ± 1.6
171.75 K, Crystal 2, Small (less than 1 g) adiabatic calorimetry | 254.25 ± 1.8
171.81 K, Crystal 1, Small (less than 1 g) adiabatic calorimetry | 235.91 ± 1.6
172.49 K, Crystal 1, Small (less than 1 g) adiabatic calorimetry | 236.43 ± 1.6
173.18 K, Crystal 1, Small (less than 1 g) adiabatic calorimetry | 237.49 ± 1.7
174.23 K, Crystal 2, Small (less than 1 g) adiabatic calorimetry | 257.27 ± 1.8
174.55 K, Crystal 1, Small (less than 1 g) adiabatic calorimetry | 239.04 ± 1.7
175.09 K, Crystal 1, Small (less than 1 g) adiabatic calorimetry | 239.43 ± 1.7
175.91 K, Crystal 1, Small (less than 1 g) adiabatic calorimetry | 240.69 ± 1.7
176.72 K, Crystal 2, Small (less than 1 g) adiabatic calorimetry | 260.38 ± 1.8
177.26 K, Crystal 1, Small (less than 1 g) adiabatic calorimetry | 242.06 ± 1.7
177.69 K, Crystal 1, Small (less than 1 g) adiabatic calorimetry | 242.43 ± 1.7
178.61 K, Crystal 1, Small (less than 1 g) adiabatic calorimetry | 243.74 ± 1.7
179.23 K, Crystal 2, Small (less than 1 g) adiabatic calorimetry | 263.65 ± 1.8
179.95 K, Crystal 1, Small (less than 1 g) adiabatic calorimetry | 245.46 ± 1.7
180 K, Crystal 1, Vacuum adiabatic calorimetry | 245.15 ± 1.5
180 K, Crystal 2, Vacuum adiabatic calorimetry | 264.63 ± 1.6
180.31 K, Crystal 1, Small (less than 1 g) adiabatic calorimetry | 245.52 ± 1.7
181.28 K, Crystal 1, Small (less than 1 g) adiabatic calorimetry | 246.9 ± 1.7
181.74 K, Crystal 2, Small (less than 1 g) adiabatic calorimetry | 266.86 ± 1.9
182.62 K, Crystal 1, Small (less than 1 g) adiabatic calorimetry | 248.29 ± 1.7
182.95 K, Crystal 1, Small (less than 1 g) adiabatic calorimetry | 248.51 ± 1.7
183.94 K, Crystal 1, Small (less than 1 g) adiabatic calorimetry | 249.95 ± 1.7
184.27 K, Crystal 2, Small (less than 1 g) adiabatic calorimetry | 270.08 ± 1.9
185.26 K, Crystal 1, Small (less than 1 g) adiabatic calorimetry | 251.54 ± 1.8
185.59 K, Crystal 1, Small (less than 1 g) adiabatic calorimetry | 251.57 ± 1.8
186.58 K, Crystal 1, Small (less than 1 g) adiabatic calorimetry | 253 ± 1.8
186.82 K, Crystal 2, Small (less than 1 g) adiabatic calorimetry | 273.41 ± 1.9
187.89 K, Crystal 1, Small (less than 1 g) adiabatic calorimetry | 254.44 ± 1.8
188.25 K, Crystal 1, Small (less than 1 g) adiabatic calorimetry | 254.7 ± 1.8
189.2 K, Crystal 1, Small (less than 1 g) adiabatic calorimetry | 256.01 ± 1.8
189.37 K, Crystal 2, Small (less than 1 g) adiabatic calorimetry | 276.6 ± 1.9
190 K, Crystal 1, Vacuum adiabatic calorimetry | 256.78 ± 1.6
190 K, Crystal 2, Vacuum adiabatic calorimetry | 277.35 ± 1.7
190.5 K, Crystal 1, Small (less than 1 g) adiabatic calorimetry | 257.62 ± 1.8
190.92 K, Crystal 1, Small (less than 1 g) adiabatic calorimetry | 257.87 ± 1.8
191.8 K, Crystal 1, Small (less than 1 g) adiabatic calorimetry | 259.15 ± 1.8
191.94 K, Crystal 2, Small (less than 1 g) adiabatic calorimetry | 279.67 ± 1.9
193.09 K, Crystal 1, Small (less than 1 g) adiabatic calorimetry | 260.81 ± 1.8
193.6 K, Crystal 1, Small (less than 1 g) adiabatic calorimetry | 261.01 ± 1.8
194.38 K, Crystal 1, Small (less than 1 g) adiabatic calorimetry | 262.19 ± 1.8
194.52 K, Crystal 2, Small (less than 1 g) adiabatic calorimetry | 282.72 ± 1.9
195.67 K, Crystal 1, Small (less than 1 g) adiabatic calorimetry | 263.76 ± 1.8
196.29 K, Crystal 1, Small (less than 1 g) adiabatic calorimetry | 264.21 ± 1.8
196.94 K, Crystal 1, Small (less than 1 g) adiabatic calorimetry | 265.24 ± 1.8
197.12 K, Crystal 2, Small (less than 1 g) adiabatic calorimetry | 285.61 ± 2
198.22 K, Crystal 1, Small (less than 1 g) adiabatic calorimetry | 266.88 ± 1.9
199 K, Crystal 1, Small (less than 1 g) adiabatic calorimetry | 267.79 ± 1.9
199.49 K, Crystal 1, Small (less than 1 g) adiabatic calorimetry | 268.59 ± 1.9
199.73 K, Crystal 2, Small (less than 1 g) adiabatic calorimetry | 288.75 ± 2
200 K, Crystal 1, Vacuum adiabatic calorimetry | 269.03 ± 1.7
200 K, Crystal 2, Vacuum adiabatic calorimetry | 289.06 ± 1.8
200.76 K, Crystal 1, Small (less than 1 g) adiabatic calorimetry | 270.11 ± 1.9
201.72 K, Crystal 1, Small (less than 1 g) adiabatic calorimetry | 271.16 ± 1.9
202.02 K, Crystal 1, Small (less than 1 g) adiabatic calorimetry | 271.81 ± 1.9
202.35 K, Crystal 2, Small (less than 1 g) adiabatic calorimetry | 291.75 ± 2
203.27 K, Crystal 1, Small (less than 1 g) adiabatic calorimetry | 273.36 ± 1.9
204.44 K, Crystal 1, Small (less than 1 g) adiabatic calorimetry | 274.73 ± 1.9
204.53 K, Crystal 1, Small (less than 1 g) adiabatic calorimetry | 275.01 ± 1.9
204.98 K, Crystal 2, Small (less than 1 g) adiabatic calorimetry | 294.58 ± 2
205.77 K, Crystal 1, Small (less than 1 g) adiabatic calorimetry | 276.69 ± 1.9
207.02 K, Crystal 1, Small (less than 1 g) adiabatic calorimetry | 278.34 ± 1.9
207.18 K, Crystal 1, Small (less than 1 g) adiabatic calorimetry | 278.39 ± 1.9
207.63 K, Crystal 2, Small (less than 1 g) adiabatic calorimetry | 297.45 ± 2
208.26 K, Crystal 1, Small (less than 1 g) adiabatic calorimetry | 279.95 ± 1.9
209.49 K, Crystal 1, Small (less than 1 g) adiabatic calorimetry | 281.68 ± 1.9
209.93 K, Crystal 1, Small (less than 1 g) adiabatic calorimetry | 282.11 ± 1.9
210 K, Crystal 1, Vacuum adiabatic calorimetry | 282.2 ± 1.8
210 K, Crystal 2, Vacuum adiabatic calorimetry | 300.06 ± 1.9
210.29 K, Crystal 2, Small (less than 1 g) adiabatic calorimetry | 300.38 ± 2.1
210.72 K, Crystal 1, Small (less than 1 g) adiabatic calorimetry | 283.2 ± 2
211.95 K, Crystal 1, Small (less than 1 g) adiabatic calorimetry | 284.9 ± 2
212.69 K, Crystal 1, Small (less than 1 g) adiabatic calorimetry | 285.7 ± 2
212.97 K, Crystal 2, Small (less than 1 g) adiabatic calorimetry | 303.2 ± 2.1
213.18 K, Crystal 1, Small (less than 1 g) adiabatic calorimetry | 286.42 ± 2
214.4 K, Crystal 1, Small (less than 1 g) adiabatic calorimetry | 288 ± 2
215.46 K, Crystal 1, Small (less than 1 g) adiabatic calorimetry | 289.41 ± 2
215.62 K, Crystal 1, Small (less than 1 g) adiabatic calorimetry | 289.65 ± 2
215.65 K, Crystal 2, Small (less than 1 g) adiabatic calorimetry | 306.03 ± 2.1
216.83 K, Crystal 1, Small (less than 1 g) adiabatic calorimetry | 291.26 ± 2
218.04 K, Crystal 1, Small (less than 1 g) adiabatic calorimetry | 292.84 ± 2
218.24 K, Crystal 1, Small (less than 1 g) adiabatic calorimetry | 293.08 ± 2
218.35 K, Crystal 2, Small (less than 1 g) adiabatic calorimetry | 308.99 ± 2.1
219.24 K, Crystal 1, Small (less than 1 g) adiabatic calorimetry | 294.47 ± 2
220 K, Crystal 1, Vacuum adiabatic calorimetry | 295.42 ± 1.8
220 K, Crystal 2, Vacuum adiabatic calorimetry | 310.55 ± 1.9
220.45 K, Crystal 1, Small (less than 1 g) adiabatic calorimetry | 296.21 ± 2
221.03 K, Crystal 1, Small (less than 1 g) adiabatic calorimetry | 296.79 ± 2
